We go through one molecule from publication PMC6745035, “Novel tetrahydroacridine derivatives with iodobenzoic moieties induce G0/G1 cell cycle arrest and apoptosis in A549 non-small lung cancer and HT-29 colorectal cancer cells” (Molecular and Cellular Biochemistry, 2019).

Holding throughout (format): cell-based, human
In test [1] the test system is A549 cells. Nature of the test: MTT cytotoxicity assay, A549. The settings on record: Homo sapiens, A549, 24 h, MTT, 24 h incubation; read-out: IC50 µM ± SD against A549. An excerpt: A549 cell line (lung carcinoma from human) (European Collection of Cell Culture) and HT-29 cell line (colorectal adenocarcinoma from human) (American Type Culture Collection) were chosen to evaluate the cytotoxicity of novel compounds.
(§1) The MTT assay was used to evaluate cell metabolic activity. The test principle is based on the determination of cell viability by measuring the metabolic activity in mitochondria. Enzymatically active mitochondria reduce the water-soluble MTT (3-(4,5-dimethylthiazol-2-yl)-2,5 diphenyltetrazoliumbromide) to blue–violet insoluble formazan. The number of viability cells is proportional to the colour intensity determined by photometric measurements (an analytical wavelength 570 nm) after dissolving the formazan in Dimethylsulfoxide (DMSO) (Serva) and Sorensen’s glycine buffer. MTT (Sigma Aldrich) was dissolved in Phosphate Buffered Saline (PBS) (PAN-Biotech) at a concentration of 0.5 mg/mL. Sorensen’s glycine buffer is made of 0.1 M glycine and 0.1 M NaCl, at pH 10.5. Studied compounds were dissolved in DMSO in order to receive stock solutions.
(§2) For the assay, cells were seeded into 96-well plates at density 10^4 cells per well and cultured for 24 h at 37 °C and 5% CO2. Then medium was removed, and cells were exposed to the 100 µL of the compound solutions over a range of concentrations (final DMSO concentration was below 0.2%) or nothing but culture medium (blank control). Pure DMSO was used as a positive control. After 24 h of incubation with the compound solutions, medium was removed and 50 µL of the MTT solution was added to each well and incubated in the dark for additional 2 h at 37 °C. Then the MTT solution was carefully removed and 100 µL of DMSO was added. Plates were incubated for 10 min at room temperature. Finally, 5 µL of Sorensen Buffer was added to each well. Plate was swayed, and the absorbance was measured by using microplate reader (Synergy H1, BioTek, Winooski, VT, USA) at a wavelength of 570 nm. The cell viability was expressed as a percentage of the control values (blank). The experiments were done in triplicate.

The test system of test [2] is A549 cells. Nature of the test: Cell cycle analysis (PI, flow cytometry), A549. The settings on record: A549, 24 h, 10 µM. The procedure:
(§3) Then, compounds were added into the wells and cells were further incubated for 24 h. After incubation, monolayer and supernatant cells were harvested and washed in PBS. Then, cells were centrifuged (monolayer—1200 rpm for 10 min, supernatant 3500 rpm for 10 min) and fixed in cold 70% ethanol. Pellets were kept at 4 °C for at least 2 h. Prior to analysis, cells were centrifuged and re-suspended in RNAsi (type 1-A; Sigma Aldrich)—PBS working solution (200 µg/mL). Samples were incubated at 37 °C for 10 min. At the end, 3 µL of 2 mg/mL propidium iodide (PI) (Sigma Aldrich) solution was added to each sample. Samples were kept in the dark prior to analysis. Analysis was performed on BD Accuri C6 Flow Cytometry (Becton–Dickinson). Etoposide (Calbiochem) was used as a reference drug. Experiments were done in triplicates.

The subject of test [3] is HT-29 cells. Nature of the test: Cell cycle analysis (PI, flow cytometry), HT-29. The note with it: HT-29, 24 h, 10 µM. The procedure: as §3
In another test the test system is EA.hy926 cells. Nature of the test: MTT cytotoxicity assay, EA.hy926. The settings on record: Homo sapiens, EA.hy 926, 24 h, MTT, 24 h incubation; read-out: IC50 µM ± SD against EA.hy926.
Text: The EA.hy926 cells (the human umbilical vein, somatic cell hybrid) (American Type Culture Collection) are immortalized human umbilical vein endothelial cells. They have morphological, phenotypic and functional characteristics of human endothelial cells, without the limited lifespan. This cell line has been considered as a good model for anticancer drug screening and was chosen to evaluate the endothelial cytotoxicity of novel compounds.
as §1, §2

Test [4] deals with HT-29 cells. Nature of the test: Apoptosis assay by annexin-V/PI double staining, HT-29. The note with it: HT-29, 24 h, 25 µM; control 8.62%. The procedure: (§4) Compounds were added to the cells and further incubated for 24 h. After treatment, monolayer and supernatant cells were harvested, washed with PBS and centrifuged (monolayer at 1200 rpm for 10 min, supernatant at 3500 rpm for 10 min). Then, cells were re-suspended in binding buffer and stained with 2 µL of Annexin-V and […] of PI (ANNEXIN-V—FITC Apoptosis Detection Kit, Immunostep) in the dark for 10 min at room temperature. Cells were analysed by BD Accuri C6 Flow Cytometry (Becton–Dickinson). Etoposide (Calbiochem) was used as a reference drug. Experiments were done in triplicates.

Test [5] has as its system A549 cells. Nature of the test: Apoptosis assay by annexin-V/PI double staining, A549. The note with it: A549, 24 h, 75 µM; control 7.80%. The procedure:
as §4

On to `COc1cc([C@@H]2c3cc4c(cc3[C@@H](O[C@@H]3O[C@@H]5CO[C@@H](C)O[C@H]5[C@H](O)[C@H]3O)[C@H]3COC(=O)[C@H]23)OCO4)cc(OC)c1O` [Etoposide, reference compound], for which the results for the IC50 in the test on A549 cells [1] and in the test on EA.hy926 cells were 451 ± 18.3 µM and 155 ± 9.81 µM, respectively. Moreover, the “Cells in G0/G1 phase” value with A549 cells [2] was found to be 27.31%. Moreover, the results for the “Cells in G2/M phase” value with A549 cells [2] and with HT-29 cells [3] were 66.02% and 73.84%, respectively. Further, in the test with A549 cells [2], the “Cells in S phase” value was found to be 6.67%. The Total apoptotic cells worked out at 18.18% with HT-29 cells [4] and 43.46% in the test with A549 cells [5].
